Values of other authors as cited in patent US20040067256A1, “Novel modified release formulation” (priority 2001, published 2004).
Read-outs that look alike come from different tables or passages of the source.

Conditions: ambient temperature of 22-25° C.

| water-solubility | water-solubility (physiological pH) | Structure (SMILES) |
| --- | --- | --- |
| about 0.5 μg/ml | – | CCOC(=O)C1=C(C)NC(C)=C(C(=O)OC)C1c1cccc(Cl)c1Cl (centres unmarked) [Felodipine, 2,6-dimethyl-4-(2,3-dichlorophenyl)-1,4-dihydropyridine-3,5-dicarboxylic acid-3-methyl ester-5-ethyl ester] |
| – | about 0.0046 mg/ml | CC(O)(CS(=O)(=O)c1ccc(F)cc1)C(=O)Nc1ccc(C#N)c(C(F)(F)F)c1 (racemic) [bicalutamide, 4′-cyano-α′,α′,α′-trifluoro-3-(4-fluorophenylsulphonyl)-2-hydroxy-2-methylpropiono-m-toluidide] |
